Consider one compound from patent US20260069621A1, “Pentagalloyl glucose (PGG) for use in treatment of pulmonary hypertension” (Charité - Universitaetsmedizin Berlin, priority 2021, published 2026).

The test system of data set [1] is human PAs. Nature of the data set: Ex vivo culture of human PAs with or without elastase, EVG staining of elastic fibers. The procedure: Effects of PGG on PA biomechanics. The effect of PGG on PA biomechanical properties was assessed by ex vivo culture of PA specimens followed by uniaxial tensile testing. Freshly isolated PAs were handled under sterile conditions. One piece of the artery was excised and directly underwent uniaxial tensile testing to record PA biomechanics at baseline. The rest of the PA was prepared as 2×8-mm strips and placed in a 12-well plate for ex vivo culture in serum-free Dulbecco's modified Eagle's medium (DMEM, Gibco) supplied with penicillin-streptomycin (Thermo Fisher) at 37° C. with controlled humidity at 21% O2 and 5% CO2. PGG (penta-O-galloyl-β-D-glucose hydrate, Sigma-Aldrich) was dissolved in dimethyl sulfoxide (DMSO, Sigma-Aldrich) as a stock solution and added to the medium at a final concentration of 0.1%. […] The following four treatment conditions were tested: control, elastase only, PGG only and PGG prior to elastase. PGG treatment was performed for 1 h at 37° C. prior to culturing PAs for 24 h in the presence or absence of elastase. Control samples were incubated with the corresponding concentrations of DMSO. Histology. Human or rat PA samples were cryo-embedded in OCT Compound (Tissue-Tek) and sliced into 10 μm transverse sections on a Microm HM560 cryostat. […] EVG staining was quantified based on positively stained area on single-plane images using Fiji-ImageJ.

For data set [2] the following is noted: concentrations similar to 0.1%; cited from earlier work.
The test system of data set [3] is human PAs. As to the kind of experiment: Ex vivo culture of human PAs followed by uniaxial tensile test. Particulars: 0.1% PGG. The procedure: Uniaxial tensile test. Following harvesting, human PA samples were kept in normal saline on ice and assessed for biomechanics within 2-4 h. […] Loose connective and adipose tissue were carefully removed, and sample dimensions (length and width) were measured using a digital caliper. The circumferential tensile properties of PAs were assessed using a MyoDynamics Muscle Strip Myograph System (840DM, Danish Myo Technology, Hinnerup, Denmark) with controlled temperature (37° C.) and aeration. To this end, circumferential rectangular sections (2×8 mm) were excised from the pulmonary trunk and mounted at 5 mm length. […] From force-displacement curves, the following parameters were derived: stiffness of elastin (k1)- and collagen (k2)-enriched arterial material (calculated as the slopes of the toe- and linear regions, respectively), with stiffness (k, mN/mm) reflecting the resistance to deformation (ΔF/ΔL) generated by the respective material, and the strain at which the transition of load-bearing elements from elastin to collagen occurred (εTrans), defined based on force-displacement curve characteristics as the strain applied when F reached 100 mN.
Effects of PGG on PA biomechanics. The effect of PGG on PA biomechanical properties was assessed by ex vivo culture of PA specimens followed by uniaxial tensile testing. […]

Another data set has as its system rat AAA model. Particulars: local application; cited from earlier work.

Regarding `O=C(OC[C@H]1O[C@@H](OC(=O)c2cc(O)c(O)c(O)c2)[C@H](OC(=O)c2cc(O)c(O)c(O)c2)[C@@H](OC(=O)c2cc(O)c(O)c(O)c2)[C@@H]1OC(=O)c1cc(O)c(O)c(O)c1)c1cc(O)c(O)c(O)c1` [PGG, 1,2,3,4,6-Penta-O-galloyl-β-D-glucose], the “Elastic fibers (EVG staining) after elastase treatment” value in the data set with human PAs [1] (0.1% PGG, 1 U porcine elastase for 24 h) is “partially preserved”. The Elastin content entry in the data set on human PAs [1] (naïve PAs and PAs treated with elastase) was “increased elastin content”. For the same compound, in data set [2], the Cytotoxicity result is recorded as “minimal cytotoxicity”. In addition, in the data set with human PAs [3] (elastase-treated PAs), the “εTrans in uniaxial tensile tests” value is “increased”. Further, in the data set with human PAs [3] (naïve PAs), the “Load borne by elastic fibers” value was “increased the load borne by elastic fibers”. In addition, in the data set on rat AAA model, the Aneurysmal expansion result is on record as “reduce” and the Elastic fiber degeneration result was “effectively decrease”.
